What was measured:
blackgrass = test: Test B pre/postemergence blackgrass; format: in vivo, Alopecurus myosuroides
Summary of the method: (§1)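 Herbicidal effect was estimated by eye on a ten-point control scale after plants spent twelve to sixteen days in a greenhouse following soil or foliar treatment. Foliar sprays targeted plants at one to four leaves; all doses were formulated in a non-phytotoxic solvent with surfactant.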

cocklebur = test: Test B pre/postemergence cocklebur; format: in vivo, Xanthium strumarium
Summary of the method: as §1

corn = test: Test B pre/postemergence corn; format: in vivo, Zea mays
Summary of the method: as §1

crabgrass = test: Test B pre/postemergence crabgrass; format: in vivo, Digitaria sanguinalis
Summary of the method: as §1

giant foxtail = test: Test B pre/postemergence giant foxtail; format: in vivo, Setaria faberii
Summary of the method: as §1

morningglory = test: Test B pre/postemergence morningglory; format: in vivo, Ipomoea hederacea
Summary of the method: as §1

pigweed = test: Test B pre/postemergence pigweed; format: in vivo, Amaranthus retroflexus
Summary of the method: as §1

rape = test: Test B pre/postemergence rape; format: in vivo, Brassica napus
Summary of the method: as §1

soybean = test: Test B pre/postemergence soybean; format: in vivo, Glycine max
Summary of the method: as §1

sugar beet = test: Test B pre/postemergence sugar beet; format: in vivo, Beta vulgaris
Summary of the method: as §1

velvetleaf = test: Test B pre/postemergence velvetleaf; format: in vivo, Abutilon theophrasti
Summary of the method: as §1

wheat = test: Test B pre/postemergence wheat; format: in vivo, Triticum aestivum
Summary of the method: as §1

purple nutsedge = test: Test B pre/postemergence purple nutsedge; format: in vivo, Cyperus rotundus
Summary of the method: as §1

rice = test: Test B flood test rice; format: in vivo, Oryza sativa
Summary of the method: (§2)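 Each value is a visual injury score relative to controls, with 10 meaning complete control and 0 no effect. Evaluation took place twelve to sixteen days after the 2-leaf-stage plants were treated and kept in the greenhouse.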

smallflower flatsedge = test: Test B flood test smallflower flatsedge; format: in vivo, Cyperus difformis
Summary of the method: as §2

duck salad = test: Test B flood test duck salad; format: in vivo, Heteranthera limosa
Summary of the method: as §2

[1] = Preemergence, Rate 62 g/ha, scale of 0 to 10 where 0 is no effect and 10 is complete control
[2] = Preemergence, Rate 250 g/ha, scale of 0 to 10 where 0 is no effect and 10 is complete control
[3] = Preemergence, Rate 500 g/ha, scale of 0 to 10 where 0 is no effect and 10 is complete control
[4] = Rate 62 g/ha, Postemergence, scale 0 to 10 (0 no effect, 10 complete control)
[5] = Rate 125 g/ha, Postemergence, scale of 0 to 10 where 0 is no effect and 10 is complete control
[6] = Rate 125 g/ha, Preemergence, scale of 0 to 10 where 0 is no effect and 10 is complete control
[7] = Rate 250 g/ha, Postemergence, scale of 0 to 10 where 0 is no effect and 10 is complete control
[8] = Rate 500 g/ha, Postemergence, scale 0 to 10, 0 no effect, 10 complete control
[9] = Rate 62 g/ha, headed Pre-emergence (flood test species), scale 0 to 10 (0 no effect, 10 complete control)
[10] = Rate 125 g/ha, Pre-emergence, flood test species, scale 0 to 10 where 0 is no effect and 10 is complete control
[11] = Rate 250 g/ha, Pre-emergence, flood-test species, scale 0 to 10, 0 is no effect, 10 is complete control
[12] = Rate 500 g/ha, Pre-emergence, flood test species, scale 0 to 10 (0 no effect, 10 complete control)

CC(C)N(C(=O)n1oc(=O)n(C2CCCC2)c1=O)c1ccccc1 [Compound 283]
Blackgrass plant response rating (blackgrass; [1]): 7
Blackgrass plant response rating (blackgrass; [2]): 9
Plant response rating, Blackgrass (blackgrass; [3]): 10
Blackgrass plant response rating (blackgrass; [4]): 2
Blackgrass plant response rating (blackgrass; [5]): 6
Blackgrass plant response rating (blackgrass; [6]): 8
Plant response rating, Blackgrass (blackgrass; [7]): 7
Blackgrass plant response rating (blackgrass; [8]): 7
Cocklebur plant response rating (cocklebur; [1]): 0
Cocklebur plant response rating (cocklebur; [2]): 0
Plant response rating, Cocklebur (cocklebur; [3]): 0
Cocklebur plant response rating (cocklebur; [4]): 2
Cocklebur plant response rating (cocklebur; [5]): 2
Cocklebur plant response rating (cocklebur; [6]): 0
Plant response rating, Cocklebur (cocklebur; [7]): 2
Cocklebur plant response rating (cocklebur; [8]): 2
Corn plant response rating (corn; [1]): 0
Corn plant response rating (corn; [2]): 0
Plant response rating, Corn (corn; [3]): 0
Corn plant response rating (corn; [4]): 0
Corn plant response rating (corn; [5]): 0
Corn plant response rating (corn; [6]): 0
Plant response rating, Corn (corn; [7]): 0
Corn plant response rating (corn; [8]): 0
Crabgrass plant response rating (crabgrass; [1]): 2
Plant response rating, Crabgrass (crabgrass; [3]): 7
Crabgrass plant response rating (crabgrass; [4]): 0
Crabgrass plant response rating (crabgrass; [5]): 0
Crabgrass plant response rating (crabgrass; [6]): 7
Plant response rating, Crabgrass (crabgrass; [7]): 1
Crabgrass plant response rating (crabgrass; [8]): 1
Giant foxtail plant response rating (giant foxtail; [1]): 8
Giant foxtail plant response rating (giant foxtail; [2]): 10
Plant response rating, Giant foxtail (giant foxtail; [3]): 10
Giant foxtail plant response rating (giant foxtail; [4]): 0
Giant foxtail plant response rating (giant foxtail; [5]): 3
Giant foxtail plant response rating (giant foxtail; [6]): 9
Plant response rating, Giant foxtail (giant foxtail; [7]): 4
Giant foxtail plant response rating (giant foxtail; [8]): 7
Morningglory plant response rating (morningglory; [1]): 0
Morningglory plant response rating (morningglory; [2]): 0
Plant response rating, Morningglory (morningglory; [3]): 0
Morningglory plant response rating (morningglory; [4]): 8
Morningglory plant response rating (morningglory; [5]): 9
Morningglory plant response rating (morningglory; [6]): 0
Plant response rating, Morningglory (morningglory; [7]): 9
Morningglory plant response rating (morningglory; [8]): 10
Redroot pigweed plant response rating (pigweed; [1]): 2
Redroot pigweed plant response rating (pigweed; [2]): 10
Plant response rating, Redroot pigweed (pigweed; [3]): 10
Redroot pigweed plant response rating (pigweed; [4]): 4
Redroot pigweed plant response rating (pigweed; [5]): 4
Redroot pigweed plant response rating (pigweed; [6]): 6
Plant response rating, Redroot pigweed (pigweed; [7]): 5
Redroot pigweed plant response rating (pigweed; [8]): 7
Rape plant response rating (rape; [1]): 0
Rape plant response rating (rape; [2]): 2
Plant response rating, Rape (rape; [3]): 8
Rape plant response rating (rape; [4]): 2
Rape plant response rating (rape; [5]): 3
Plant response rating, Rape (rape; [7]): 4
Rape plant response rating (rape; [8]): 7
Soybean plant response rating (soybean; [1]): 0
Soybean plant response rating (soybean; [2]): 0
Plant response rating, Soybean (soybean; [3]): 0
Soybean plant response rating (soybean; [4]): 4
Soybean plant response rating (soybean; [5]): 4
Soybean plant response rating (soybean; [6]): 0
Plant response rating, Soybean (soybean; [7]): 5
Soybean plant response rating (soybean; [8]): 7
Sugarbeets plant response rating (sugar beet; [1]): 0
Sugarbeets plant response rating (sugar beet; [2]): 2
Plant response rating, Sugarbeets (sugar beet; [3]): 5
Sugarbeets plant response rating (sugar beet; [4]): 0
Sugarbeets plant response rating (sugar beet; [5]): 2
Sugarbeets plant response rating (sugar beet; [6]): 0
Plant response rating, Sugarbeets (sugar beet; [7]): 2
Sugarbeets plant response rating (sugar beet; [8]): 2
Velvetleaf plant response rating (velvetleaf; [1]): 0
Velvetleaf plant response rating (velvetleaf; [2]): 5
Plant response rating, Velvetleaf (velvetleaf; [3]): 7
Velvetleaf plant response rating (velvetleaf; [4]): 0
Velvetleaf plant response rating (velvetleaf; [5]): 0
Velvetleaf plant response rating (velvetleaf; [6]): 2
Plant response rating, Velvetleaf (velvetleaf; [7]): 1
Velvetleaf plant response rating (velvetleaf; [8]): 3
Wheat plant response rating (wheat; [1]): 0
Wheat plant response rating (wheat; [2]): 1
Plant response rating, Wheat (wheat; [3]): 6
Wheat plant response rating (wheat; [4]): 0
Wheat plant response rating (wheat; [5]): 0
Wheat plant response rating (wheat; [6]): 0
Plant response rating, Wheat (wheat; [7]): 0
Wheat plant response rating (wheat; [8]): 0
Nutsedge plant response rating (purple nutsedge; [1]): 0
Nutsedge plant response rating (purple nutsedge; [2]): 0
Plant response rating, Nutsedge (purple nutsedge; [3]): 0
Nutsedge plant response rating (purple nutsedge; [4]): 0
Nutsedge plant response rating (purple nutsedge; [5]): 0
Nutsedge plant response rating (purple nutsedge; [6]): 0
Plant response rating, Nutsedge (purple nutsedge; [7]): 0
Nutsedge plant response rating (purple nutsedge; [8]): 0
Rice plant response rating (rice; [9]): 0
Rice plant response rating (rice; [10]): 0
Rice plant response rating (rice; [11]): 0
Rice plant response rating (rice; [12]): 1
S. Flatsedge plant response rating (smallflower flatsedge; [9]): 0
S. Flatsedge plant response rating (smallflower flatsedge; [10]): 0
S. Flatsedge plant response rating (smallflower flatsedge; [11]): 0
S. Flatsedge plant response rating (smallflower flatsedge; [12]): 5
Ducksalad plant response rating (duck salad; [9]): 0
Ducksalad plant response rating (duck salad; [10]): 0
Ducksalad plant response rating (duck salad; [11]): 0
Ducksalad plant response rating (duck salad; [12]): 0

Source: US6737383B1, “Herbicidal oxadiazolidines” (priority 1999, dated 2004)
